Data: US20190060340A1, “NOVEL AMINOGLYCOSIDES AND USES THEREOF IN THE TREATMENT OF GENETIC DISORDERS” (Technion Research & Development Foundation Limited, priority 2007, published 2019)
Converted amounts (≈) assume the structure as drawn. “And” between values parts separate entries of the source, which are not always exact repeats. Equal values may be shown once.

Legend:
[1] = system: original p2Luc plasmid containing a TGA C nonsense mutation; experiment: Dual luciferase in vitro transcription/translation assay; assay type: biochemical; details: for Conc. (μM) at which maximum suppression level was achieved: dual luciferase in vitro system, all constructs of Table 21; for Maximum in vitro suppression (%) UGAC: p2luc
Excerpt: DNA fragments derived from the subsequent genes, including the tested stop mutation or the corresponding wild-type codon, and four upstream and downstream flanking codons (except for p.R3X constructs, in which there are only two upstream PCDH15-flanking codons) were cloned into p2Luc plasmid between renilla and firefly luciferase genes as described previously. The formed plasmids, as well as the original p2Luc plasmid containing a TGA C nonsense mutation, were transcribed and translated in vitro and the stop codon suppression efficiency was calculated as described previously.
For the dual luciferase in vitro transcription/translation assay, DNA fragments derived from PCDH15, CFTR, Dystrophin and IDUA cDNAs, including the tested stop mutation or the corresponding wild-type codon, and four upstream and downstream flanking codons (except for p.R3X constructs, in which there are only two upstream PCDH15-flanking codons) were created by annealing the couples of complementary oligonucleotides presented above.
Fragments were inserted into the SalI and SacI restriction sites of the p2Luc plasmid between renilla and firefly luciferase genes. The afforded plasmids, as well as the original p2Luc plasmid containing a TGA C nonsense mutation, were transcribed and translated using the TNT Reticulocyte Lysate Quick Coupled Transcription/Translation System (Promega™). Each transcription/translation reaction (10 μl, total volume) contained 8 μl TNT T7 Quick Master Mix, 0.2 μl methionine (1 mM), 0.8 μl DNA template (2 μg/μl), 1 μl of either water (blank) or 1 μl solution of increasing concentrations of the tested aminoglycosides in water. Luciferase activity was determined following 90 minutes incubation at 30° C. using the Dual Luciferase Reporter Assay System (Promega™). The total luminescence produced by each one of the proteins was measured separately using the FLx800 multidetection plate reader (Bio-Tek) and the stop codon suppression efficiency was calculated as described previously. The results are averages of at least three independent experiments.

[2] = system: Escherichia coli (R477-100); experiment: Antibacterial activity, MIC; assay type: cell-based; details: for MIC: Escherichia coli, read-out: minimal inhibitory concentration (MIC)
prokaryotic translation = experiment: Inhibition of prokaryotic translation; assay type: biochemical; details: for preference for inhibiting translation in prokaryotes versus eukaryotes: from IC50 values
[3] = system: R3X nonsense mutation (a premature UGA C stop codon) of the PCDH15 gene; experiment: In vitro suppression and translation, pDB650-R3X reporter plasmid in rabbit reticulocyte lysate coupled transcription/translation system; assay type: biochemical, human; details: for Concentration (μM) at which maximal suppression was observed, R3X / suppression level (%), maximum in vitro, R3X: Table 20; for suppression level (%), maximum in vitro, R3X: at concentration of maximal suppression; for Conc. (concentration at which maximal suppression level was observed) / Supp. level (%), maximal in-vitro mutation suppression: R3X mutation; for Supp. level (%), maximal in-vitro mutation suppression: 35-kDa product out of total protein; for Supp. level (%), maximal in-vitro mutation suppression / Trans. level (%): at Conc. of maximal suppression; for Trans. level (%): total protein relative to no compound
Procedure: Initially, Compounds 1-9 were tested for their ability to suppress this nonsense mutation in vitro, using a reporter construct carrying the R3X nonsense mutation (a premature UGA C stop codon) of the PCDH15 gene. Mutations in the PCDH15 gene which encodes protocardherin 15, cause type 1 Usher syndrome (USH1), which is characterized by profound prelingual hearing loss, vestibular areflexia, and prepubertal onset of retinitis pigmentosa (RP). Four different PCDH15 USH1-causing nonsense mutations, R3X, R245X, R643X, and R929X, have been reported in humans.
Suppression of nonsense mutations by Compounds 1-9 was tested in vitro using a reporter plasmid harboring the R3X mutation of the PCDH15 gene. To create this plasmid, the oligonucleotides 5′-[…]-3′ (SEQ ID NO: 1) and 5′-[…]-3′ (SEQ ID NO: 2) were annealed to each other and inserted into the BamHI and HindIII sites of plasmid pDB650 [6].
The resulting reporter plasmid pDB650-R3X contained a TGA C nonsense mutation between a 25-kDa polypeptide encoding open reading frame (ORF) and a 10-kDa polypeptide encoding ORF.
The plasmid was transcribed and translated in a rabbit reticulocyte lysate coupled transcription/translation system (Promega) in the presence of [^35S]-methionine, and the reaction products were separated by SDS-PAGE and quantified using Phosphorlmager analysis. The mutation suppression level was calculated as the relative proportion of the 35-kDa product out of total protein (the sum of 35-kDa and 25-kDa), and the translation level was calculated as the relative proportion of the total protein at each tested compound concentration out of the total protein without the presence of the tested compounds.
The tested concentrations of paromomycin were 0, 5, 10, 20, 30 and 40 μg/ml, tested concentrations of gentamicin were 0, 5, 10, 20, and 30 μg/ml, and the tested concentrations of Compounds 1-9 were in the range of 0-160 μg/ml.
Compound 37 was tested for its ability to suppress a nonsense mutation in-vitro, using a reporter construct carrying either R3X nonsense mutation (a premature UGA C stop codon) or R245X nonsense mutation (a premature UGA A stop codon) of the PCDH15 gene, using gentamicin, paromomycin and Compound 3 as standards and following the experimental procedures presented hereinabove.
For the rat-PGM-β-Gal in vitro readthrough system, the pDB series of reporter plasmids harbor the following elements under SP6 promoter control: an open reading frame (ORF) derived from the 5′ end of the rat PGM gene, which encodes a 25-kDa polypeptide; another small ORF, encoding the 10-kDa alpha complementation region of β-galactosidase, and terminated by tandem, in-frame stop codons (UAA UAG); located between the two ORFs is a DNA fragment derived from PCDH15 cDNA, including the tested stop mutation or the corresponding wild-type codon, and six upstream and downstream flanking codons (except for p.R3X constructs, in which there are only two upstream PCDH15-flanking codons). The fragments were created by annealing the following couples of complementary oligonucleotides:
The fragments were inserted into the BamHI and HindIII restriction sites of the pDB read-through construct. Reporter plasmids harboring each of the four nonsense mutations and the corresponding wt alleles were in vitro transcribed and translated using the TNT SP6 Coupled Reticulocyte lysate System (Promega) in the presence of [^35S]-methionine and increasing concentrations of aminoglycosides as described previously. […] The degree of suppression was calculated as the relative proportion of the 35-kDa product out of total reaction products (35-kDa and 25-kDa polypeptides). The results are averages of at least three independent experiments.

[4] = system: Escherichia coli ATCC 25922; experiment: Antibacterial activity, MIC by double-microdilution method; assay type: cell-based; details: ATCC 25922; for MIC: Escherichia coli, ATCC25922, read-out: MIC E. coli
Procedure: (§1) In order to compare the observed aminoglycoside-induced stop codon read-through activity in mammalian cells to antibacterial activity thereof, Compounds 1-9 were further investigated as antibacterial agents against both Gram-negative (E. coli) and Gram-positive (Bacillus subtilis) bacteria, and the minimal inhibitory concentration (MIC) values were determined by using a microdilution assay with paromomycin and gentamicin as controls, and the results are presented in Table 18 hereinabove.
(§2) The bacterial strains used were Escherichia coli ATCC 25922, and Bacillus Subtilis ATCC 6633. […] All the experiments were performed in triplicates and analogous results were obtained in two to four different experiments.

[5] = system: Bacillus Subtilis ATCC 6633; experiment: as above; assay type: cell-based; details: ATCC 6633; for MIC: Bacillus subtilis, ATCC6633, read-out: MIC B. Subtilis
Procedure: as §1, §2

| Compound | Conc. (μM) at which maximum suppression level was achieved [1] [µM] | Maximum in vitro suppression (%) UGAC [1] [%] | MIC [2] [µM] | efficacy of inhibiting prokaryotic ribosome relative to gentamicin and paromomycin (prokaryotic translation) | preference for inhibiting translation in prokaryotes versus eukaryotes (prokaryotic translation) | Concentration (μM) at which maximal suppression was observed, R3X [3] [µM] | suppression level (%), maximum in vitro, R3X [3] | MIC [4] [µg/mL] | MIC [5] [µg/mL] | Conc. (concentration at which maximal suppression level was observed) ([3]; in vitro) [µg/mL] | Supp. level (%), maximal in-vitro mutation suppression [3] [%] | fold higher activity compared to Compound 1 ([3]; R3X, in vitro) | fold higher suppression level compared to Compound 2 ([3]; R3X, in vitro) [fold] | MIC E. coli [4] [µg/mL] | MIC B. Subtilis [5] [µg/mL] | minimal inhibitory concentration (MIC) ([2]; Escherichia coli (R477-100)) [µM] | Trans. level (%) [3] | Trans. level (%) ([3]; listed as Gentamicin) | Supp. level (%), maximal in-vitro mutation suppression ([3]; listed as Paromomycin) [%] | Trans. level (%) ([3]; listed as Paromomycin) |
| --- | --- | --- | --- | --- | --- | --- | --- | --- | --- | --- | --- | --- | --- | --- | --- | --- | --- | --- | --- | --- |
| NCC[C@H](O)C(=O)N[C@@H]1CC(N)[C@@H](O[C@H]2OC(CO)[C@@H](O)C(O)C2N)C(O[C@@H]2O[C@H](CN)C(O)C2O)C1O (stereo partly drawn) [Compound 37] | 46 | 18.4 ± 1.6 | 384 (≈ 213 µg/mL) | significantly lower | about two-order of magnitude | 153 | 71% and 71 ± 9% | – | – | – | – | – | – | – | – | – | – | – | – | – |
| NC[C@H]1O[C@@H](O[C@@H]2[C@@H](O)[C@H](N)C[C@H](N)[C@H]2O[C@H]2O[C@H](CO)[C@@H](O)[C@H](O)[C@H]2N)[C@H](O)[C@@H]1O [Compound 3] | 107 | 4.8 ± 0.8 | 790 (≈ 359 µg/mL) | significantly lower | about two-order of magnitude | 142 | 21% and 21 ± 9% | > 512 | 48 (≈ 106 µM) | 80 | 21 ± 3 | over 3 fold | 13 | – | – | – | – | – | – | – |
| gentamicin [reference compound] | 46 | 17.7 ± 2.9 | – | – | about tree order of magnitude | 46 | 50 ± 3% | – | – | 30 | 49 ± 4 | – | – | 4 | <0.5 | 6 | about 40% | 40 ± 9 | – | – |
| NC[C@@H]1O[C@H](O[C@H]2[C@@H](O)[C@H](O[C@@H]3[C@@H](O)[C@H](N)C[C@H](N)[C@H]3O[C@H]3O[C@H](CO)[C@@H](O)[C@H](O)[C@H]3N)O[C@@H]2CO)[C@H](N)[C@@H](O)[C@@H]1O [paromomycin, reference compound] | 42 | 7.8 ± 2.2 | 22 (≈ 13.5 µg/mL) | – | about tree order of magnitude | 56 | 49 ± 6% | 12 (≈ 19.5 µM) | 8 (≈ 13 µM) | 40 | 49 | – | – | – | – | – | about 40% | – | 49 ± 6 | 40 ± 13 |
